Laboratory results as given in patent US8431565B2 (priority 2007, dated 2013).

Target: T1, rat CB2 receptor (rCB2) (Rattus norvegicus, UniProt Q9QZN9)
T1 sequence (Q9QZN9 1-360): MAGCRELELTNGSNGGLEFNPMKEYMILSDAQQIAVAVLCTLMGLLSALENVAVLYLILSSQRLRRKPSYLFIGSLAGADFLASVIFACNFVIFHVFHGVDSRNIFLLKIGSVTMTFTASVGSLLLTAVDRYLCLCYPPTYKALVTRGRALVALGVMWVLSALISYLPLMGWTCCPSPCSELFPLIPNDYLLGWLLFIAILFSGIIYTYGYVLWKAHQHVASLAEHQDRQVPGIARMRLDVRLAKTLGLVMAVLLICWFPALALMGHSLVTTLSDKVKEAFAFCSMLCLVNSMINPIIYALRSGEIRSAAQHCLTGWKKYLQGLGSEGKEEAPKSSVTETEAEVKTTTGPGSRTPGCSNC

`CCN1CCn2c(-c3ccccc3)nc(C(=O)N[C@H](C(=O)NC)C(C)(C)C)c2C1` [Compound 149, (S)-N-(3,3-dimethyl-1-(methylamino)-1-oxobutan-2-yl)-7-ethyl-3-phenyl-5,6,7,8-tetrahydroimidazo[1,5-a]pyrazine-1-carboxamide] gave an EC50 of 10 to 100 nM.

In the case of `CC(C)CN1CCn2c(-c3ccccc3)nc(C(=O)Nc3ccccc3)c2C1` [Compound 150, 7-isobutyl-N,3-diphenyl-5,6,7,8-tetrahydroimidazo[1,5-a]pyrazine-1-carboxamide], the EC50 is reported as 10 to 100 nM.

Work on `CCCN1CCn2c(-c3ccccc3)nc(C(=O)Nc3ccccc3)c2C1` [Compound 154, N,3-diphenyl-7-propyl-5,6,7,8-tetrahydroimidazo[1,5-a]pyrazine-1-carboxamide] yielded an EC50 of 10 to 100 nM.

For `CC(C)CN1CCn2c(-c3ccccc3)nc(C(=O)NN3CCCCC3)c2C1` [Compound 155, 7-isobutyl-3-phenyl-N-(piperidin-1-yl)-5,6,7,8-tetrahydroimidazo[1,5-a]pyrazine-1-carboxamide], the EC50 was 0.1 to 10 nM.

For `CC(C)CCNC(=O)c1nc(-c2ccc(Cl)cc2)n2c1CN(CC(C)C)CC2` [Compound 157, 3-(4-chlorophenyl)-7-isobutyl-N-isopentyl-5,6,7,8-tetrahydroimidazo[1,5-a]pyrazine-1-carboxamide], the EC50 was 10 to 100 nM.

`CCN1CCn2c(-c3ccc(Cl)cc3)nc(C(=O)NCCC(C)C)c2C1` [Compound 158, 3-(4-chlorophenyl)-7-ethyl-N-isopentyl-5,6,7,8-tetrahydroimidazo[1,5-a]pyrazine-1-carboxamide] showed an EC50 of 10 to 100 nM.

Work on `CC(C)CN1CCn2c(-c3ccc(Cl)cc3)nc(C(=O)N[C@H](CO)C(C)(C)C)c2C1` [Compound 160, (S)-3-(4-chlorophenyl)-N-(1-hydroxy-3,3-dimethylbutan-2-yl)-7-isobutyl-5,6,7,8-tetrahydroimidazo[1,5-a]pyrazine-1-carboxamide] yielded an EC50 of 0.1 to 10 nM.

`CCN1CCn2c(-c3ccc(Cl)cc3)nc(C(=O)N[C@H](CO)C(C)(C)C)c2C1` [Compound 161, (S)-3-(4-chlorophenyl)-7-ethyl-N-(1-hydroxy-3,3-dimethylbutan-2-yl)-5,6,7,8-tetrahydroimidazo[1,5-a]pyrazine-1-carboxamide] was tested, and the EC50 was 10 to 100 nM.

`CC(C)CN1CCn2c(-c3ccccc3)nc(C(=O)N[C@H](C)C3CCCCC3)c2C1` [Compound 163, (R)-N-(1-cyclohexylethyl)-7-isobutyl-3-phenyl-5,6,7,8-tetrahydroimidazo[1,5-a]pyrazine-1-carboxamide] showed an EC50 of 0.1 to 10 nM.

Work on `CCN1CCn2c(-c3ccccc3)nc(C(=O)N[C@H](C)C3CCCCC3)c2C1` [Compound 164, (R)-N-(1-cyclohexylethyl)-7-ethyl-3-phenyl-5,6,7,8-tetrahydroimidazo[1,5-a]pyrazine-1-carboxamide] yielded an EC50 of 10 to 100 nM.

`CC(C)CN1CCn2c(-c3ccccc3)nc(C(=O)NC3CCCCC3)c2C1` [Compound 165, N-cyclohexyl-7-isobutyl-3-phenyl-5,6,7,8-tetrahydroimidazo[1,5-a]pyrazine-1-carboxamide] was tested, and the EC50 was 0.1 to 10 nM.

For `CC(C)CN1CCn2c(-c3ccccc3)nc(C(=O)NCC3CCOCC3)c2C1` [Compound 167, 7-isobutyl-3-phenyl-N-((tetrahydro-2H-pyran-4-yl)methyl)-5,6,7,8-tetrahydroimidazo[1,5-a]pyrazine-1-carboxamide], the EC50 was 10 to 100 nM.

With `CCN1CCn2c(-c3ccccc3)nc(C(=O)NCC3CCOCC3)c2C1` [Compound 168, 7-ethyl-3-phenyl-N-((tetrahydro-2H-pyran-4-yl)methyl)-5,6,7,8-tetrahydroimidazo[1,5-a]pyrazine-1-carboxamide] the EC50 was 10 to 100 nM.

Work on `COC(=O)N1CCn2c(-c3ccccc3)nc(C(=O)NC3C4(C)CCC(C4)C3(C)C)c2C1` (stereo not shown) [Compound 178, methyl 3-phenyl-1-(1,3,3-trimethylbicyclo[2.2.1]heptan-2-ylcarbamoyl)-5,6-dihydroimidazo[1,5-a]pyrazine-7(8H)-carboxylate] yielded an EC50 of 10 to 100 nM.

For `COC(=O)N1CCn2c(-c3ccccc3)nc(C(=O)N[C@@H](C)c3ccccc3)c2C1` [Compound 179, (S)-methyl 3-phenyl-1-(1-phenylethylcarbamoyl)-5,6-dihydroimidazo[1,5-a]pyrazine-7(8H)-carboxylate], the EC50 was 10 to 100 nM.

In the case of `COC(=O)N1CCn2c(-c3ccc(Cl)cc3)nc(C(=O)NCCC(C)C)c2C1` [Compound 183, methyl 3-(4-chlorophenyl)-1-(isopentylcarbamoyl)-5,6-dihydroimidazol[1,5-a]pyrazine-7(8H)-carboxylate], the EC50 is reported as 10 to 100 nM.

`COC(=O)N1CCn2c(-c3ccc(Cl)cc3)nc(C(=O)N[C@H](CO)C(C)(C)C)c2C1` [Compound 184, (S)-methyl 3-(4-chlorophenyl)-1-(1-hydroxy-3,3-dimethylbutan-2-ylcarbamoyl)-5,6-dihydroimidazo[1,5-a]pyrazine-7(8H)-carboxylate] showed an EC50 of 10 to 100 nM.

`COC(=O)N1CCn2c(-c3ccccc3)nc(C(=O)N[C@H](C)C3CCCCC3)c2C1` [Compound 185, (R)-methyl 1-(1-cyclohexylethylcarbamoyl)-3-phenyl-5,6-dihydroimidazo[1,5-a]pyrazine-7(8H)-carboxylate] was tested, and the EC50 was 10 to 100 nM.

In the case of `CNC(=O)[C@@H](NC(=O)c1nc(-c2ccccc2)n2c1CN(C(=O)C(C)(C)C)CC2)C(C)(C)C` [Compound 190, (S)-N-(3,3-dimethyl-1-(methylamino)-1-oxobutan-2-yl)-3-phenyl-7-pivaloyl-5,6,7,8-tetrahydroimidazo[1,5-a]pyrazine-1-carboxamide], the EC50 is reported as 10 to 100 nM.

Work on `CNC(=O)[C@@H](NC(=O)c1nc(-c2ccccc2)n2c1CN(C(=O)C(C)C)CC2)C(C)(C)C` [Compound 191, (S)-N-(3,3-dimethyl-1-(methylamino)-1-oxobutan-2-yl)-7-isobutyryl-3-phenyl-5,6,7,8-tetrahydroimidazo[1,5-a]pyrazine-1-carboxamide] yielded an EC50 of 10 to 100 nM.

`CNC(=O)[C@@H](NC(=O)c1nc(-c2ccccc2)n2c1CN(C1CC1)CC2)C(C)(C)C` [Compound 197, (S)-7-cyclopropyl-N-(3,3-dimethyl-1-(methylamino)-1-oxobutan-2-yl)-3-phenyl-5,6,7,8-tetrahydroimidazo[1,5-a]pyrazine-1-carboxamide] was tested, and the EC50 was 10 to 100 nM.

Work on `Cc1noc([C@@H](NC(=O)c2nc(-c3ccccc3)n3c2CN(C2CC2)CC3)C(C)(C)C)n1` [Compound 198, (S)-7-cyclopropyl-N-(2,2-dimethyl-1-(3-methyl-1,2,4-oxadiazol-5-yl)propyl)-3-phenyl-5,6,7,8-tetrahydroimidazo[1,5-a]pyrazine-1-carboxamide] yielded an EC50 of 0.1 to 10 nM.

`Cc1nnc([C@@H](NC(=O)c2nc(-c3ccccc3)n3c2CN(CC(C)C)CC3)C(C)(C)C)o1` [Compound 202, (S)-N-(2,2-dimethyl-1-(5-methyl-1,3,4-oxadiazol-2-yl)propyl)-7-isobutyl-3-phenyl-5,6,7,8-tetrahydroimidazo[1,5-a]pyrazine-1-carboxamide] was tested, and the EC50 was 10 to 100 nM.

With `CNC(=O)[C@@H](NC(=O)c1nc(-c2ccc(C)c(F)c2)n2c1CN(C)CC2)C(C)(C)C` [Compound 240, (S)-N-(3,3-dimethyl-1-(methylamino)-1-oxobutan-2-yl)-3-(3-fluoro-4-methylphenyl)-7-methyl-5,6,7,8-tetrahydroimidazo[1,5-a]pyrazine-1-carboxamide] the EC50 was 10 to 100 nM.

`CNC(=O)[C@@H](NC(=O)c1nc(-c2ccc(Cl)cc2F)n2c1CN(C)CC2)C(C)(C)C` [Compound 241, (S)-3-(4-chloro-2-fluorophenyl)-N-(3,3-dimethyl-1-(methylamino)-1-oxobutan-2-yl)-7-methyl-5,6,7,8-tetrahydroimidazo[1,5-a]pyrazine-1-carboxamide] gave an EC50 of 0.1 to 10 nM.

With `CNC(=O)[C@@H](NC(=O)c1nc(-c2cc(C(F)(F)F)ccc2F)n2c1CN(C)CC2)C(C)(C)C` [Compound 245, (S)-N-(3,3-dimethyl-1-(methylamino)-1-oxobutan-2-yl)-3-(2-fluoro-5-(trifluoromethyl)phenyl)-7-methyl-5,6,7,8-tetrahydroimidazo[1,5-a]pyrazine-1-carboxamide] the EC50 was 10 to 100 nM.

With `CNC(=O)[C@@H](NC(=O)c1nc(-c2cc(Cl)ccc2F)n2c1CN(C)CC2)C(C)(C)C` [Compound 246, (S)-3-(5-chloro-2-fluorophenyl)-N-(3,3-dimethyl-1-(methylamino)-1-oxobutan-2-yl)-7-methyl-5,6,7,8-tetrahydroimidazo[1,5-a]pyrazine-1-carboxamide] the EC50 was 10 to 100 nM.

Compound `CNC(=O)[C@@H](NC(=O)c1nc(-c2ccc(C)cc2F)n2c1CN(C)CC2)C(C)(C)C` [Compound 249, (S)-N-(3,3-dimethyl-1-(methylamino)-1-oxobutan-2-yl)-3-(2-fluoro-4-methylphenyl)-7-methyl-5,6,7,8-tetrahydroimidazo[1,5-a]pyrazine-1-carboxamide] has an EC50 of 10 to 100 nM.

`CNC(=O)[C@@H](NC(=O)c1nc(-c2cc(C)ccc2F)n2c1CN(C)CC2)C(C)(C)C` [Compound 251, (S)-N-(3,3-dimethyl-1-(methylamino)-1-oxobutan-2-yl)-3-(2-fluoro-5-methylphenyl)-7-methyl-5,6,7,8-tetrahydroimidazo[1,5-a]pyrazine-1-carboxamide] was tested, and the EC50 was 10 to 100 nM.

With `CNC(=O)[C@@H](NC(=O)c1nc(-c2ccc(-c3ccccc3)cc2)n2c1CN(C)CC2)C(C)(C)C` [Compound 265, (S)-3-(biphenyl-4-yl)-N-(3,3-dimethyl-1-(methylamino)-1-oxobutan-2-yl)-7-methyl-5,6,7,8-tetrahydroimidazo[1,5-a]pyrazine-1-carboxamide] the EC50 was 10 to 100 nM.

For `CNC(=O)[C@@H](NC(=O)c1nc(C2=CCC(C)CC2)n2c1CN(C)CC2)C(C)(C)C` (stereo partly drawn) [Compound 270, N-((S)-3,3-dimethyl-1-(methylamino)-1-oxobutan-2-yl)-7-methyl-3-(4-methylcyclohex-1-enyl)-5,6,7,8-tetrahydroimidazo[1,5-a]pyrazine-1-carboxamide], the EC50 was 10 to 100 nM.
